Data from patent US8328934B2, “Crystal of GTP Cyclohydrolase Type IB” (priority 2007, dated 2012).
Read-outs that look alike come from different tables or passages of the source.

Experiments:
Assay type in all cases: biochemical
B. subtilis GCYH-IB [1] = target: T1, B. subtilis GCYH-IB (Bacillus subtilis, UniProt P94398); settings: for metal ion supports catalysis: apoenzyme assayed with specific metal ions over a broad concentration range; for relative activity (%): at the metal concentration for optimal activity, relative to Mn(II); for [Metal] (metal concentration for optimal activity): apoenzyme 2 μM, metal 0.1 μM-4 mM, 0.1 mM GTP
T1 construct: His6 (cleaved yes); made in house; host or cells: E. coli BL21 (DE3), pET-30 Xa/LIC plasmid pSAB-9-61
T1 sequence (P94398 1-304): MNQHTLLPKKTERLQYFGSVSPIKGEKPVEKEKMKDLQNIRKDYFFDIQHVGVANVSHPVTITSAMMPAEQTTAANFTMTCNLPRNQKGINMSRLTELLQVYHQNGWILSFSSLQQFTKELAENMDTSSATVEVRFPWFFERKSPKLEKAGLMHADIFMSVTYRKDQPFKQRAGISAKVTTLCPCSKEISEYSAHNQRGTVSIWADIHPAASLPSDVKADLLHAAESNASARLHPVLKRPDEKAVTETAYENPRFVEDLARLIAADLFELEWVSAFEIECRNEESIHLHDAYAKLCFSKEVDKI
Description: It is well established that GCYH-IA uses a bound Zn^2+ ion for activity. Nichol et al., 1985. To investigate the metal dependence of GCYH-IB, the purified recombinant B. subtilis enzyme was assayed for activity in the presence of a variety of metal ions or EDTA. […] To obtain unambiguous, quantitative data on the effect of various metal ions on catalytic activity, the enzyme was first demetallated by dialyzing against an EDTA/Chelex-containing buffer to generate the apoenzyme, which was then assayed in the presence of specific metal ions over a broad concentration range.
(§1) Enzyme Activity Assays: All chemicals were of analytical, metal-free grade from Sigma or Fisher. All solutions were prepared with Milli-Q water (18.2 MΩ) and treated with Chelex-100 (BioRad) to remove contaminating metals. Glassware were soaked in nitric acid (10%), then EDTA (5 mM) and rinsed liberally with Chelex-treated Milli-Q water before use. Activity assays were conducted as described previously (El Yacoubi et al, 2006) using either variable concentrations of metal or EDTA (5 mM), and 0.1 mM GTP.
(§2) Apoenzyme Preparation: Metal ions were removed from B. subtilis and N. gonorrhoeae GCYH-IB by incubating the purified, recombinant protein (0.5 ml) with EDTA (5 mM, 1 hr, 21° C.) followed by dialysis thrice against a 4-liter solution of Tris-HCl (50 mM, pH 8.0), KCl (50 mM), EDTA (5 mM) and a few grams of Chelex-100. The resulting apoenzyme was dialyzed thrice against 3 L of Tris-HCl (50 mM, pH 8.0), KCl (50 mM), and Chelex-100 to remove EDTA and passed through Chelex-100 resin (5 ml protein solution per 3 ml resin) prior to activity assays. Protein concentrations were determined spectrophotometrically.
Metal Activation Studies: The B. subtilis apoenzyme (2 μM) was incubated with varying concentrations (0.1 μM-4 mM) of metal chlorides (MnCl2, ZnCl2, MgCl2, NiCl2, CaCl2, CdCl2, CoCl2, CuCl2, CoCl3, FeCl3) or Fe(SO4) in standard buffer (100 mM HEPES, pH 8.0, 100 mM KCl) for 10 min at 37 C, and assayed for activity as described above. All assays involving Fe^2+ were conducted in an anaerobic chamber with degassed and N2-purged buffers.

B. subtilis GCYH-IB [2] = target: T1, B. subtilis GCYH-IB; assay: Effect of zinc on GCYH-IB activity in the presence of Mn(II); settings: 600 μM Mn(II)
Description: (§3) The presence of both Zn^2+ and Mn^2+ in a reaction assay results in diminished activity (i.e. Zn^2+ is an inhibitor versus Mn^2+, Table 6). All of the metals bind the enzymes with low affinity, such that running the protein over a G-25 column or dialyzing against metal free buffer removed the protein bound metal.
as §1, §2

N. gonorrhoeae GCYH-IB = target: T2, N. gonorrhoeae GCYH-IB (Neisseria gonorrhoeae, UniProt Q5F9K6); assay: as above; settings: 600 μM Mn(II)
T2 construct: His6 (cleaved yes); made in house; host or cells: E. coli BL21 (DE3), pET-30 Xa/LIC plasmid pSAB-8-142
T2 sequence (Q5F9K6 1-257): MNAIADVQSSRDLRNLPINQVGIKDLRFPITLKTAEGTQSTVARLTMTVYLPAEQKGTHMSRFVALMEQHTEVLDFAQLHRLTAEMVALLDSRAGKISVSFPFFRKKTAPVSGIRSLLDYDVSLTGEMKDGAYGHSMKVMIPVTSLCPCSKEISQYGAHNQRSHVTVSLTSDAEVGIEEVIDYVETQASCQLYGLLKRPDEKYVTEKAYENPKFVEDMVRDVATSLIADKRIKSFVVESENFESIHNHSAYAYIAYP
Description: as §3, §1, §2

SMILES: [Ca+2] [Ca(II)]
- metal ion supports catalysis (B. subtilis GCYH-IB [1]): fail to support activity
- relative activity (%) (B. subtilis GCYH-IB [1]): 0%

SMILES: [Cd+2] [Cd(II)]
- metal ion supports catalysis (B. subtilis GCYH-IB [1]): fail to support activity
- relative activity (%) (B. subtilis GCYH-IB [1]): 0%

SMILES: [Co+2] [Co(II)]
- [Metal] (metal concentration for optimal activity) (B. subtilis GCYH-IB [1]): 100 µM
- relative activity (%) (B. subtilis GCYH-IB [1]): 24 ± 3%

SMILES: [Co+3] [Co(III)]
- relative activity (%) (B. subtilis GCYH-IB [1]): 0%

SMILES: [Cu+2] [Cu(II)]
- metal ion supports catalysis (B. subtilis GCYH-IB [1]): fail to support activity
- relative activity (%) (B. subtilis GCYH-IB [1]): 0%

SMILES: O=C(O)CN(CCN(CC(=O)O)CC(=O)O)CC(=O)O [EDTA, reference compound]
- activity in the presence of EDTA (B. subtilis GCYH-IB [1]): no activity was observed

SMILES: [Fe+2] [Fe(II)]
- [Metal] (metal concentration for optimal activity) (B. subtilis GCYH-IB [1]): 1000 µM
- relative activity (%) (B. subtilis GCYH-IB [1]): 75 ± 8%

SMILES: [Fe+3] [Fe(III)]
- relative activity (%) (B. subtilis GCYH-IB [1]): 0%

SMILES: [Mg+2] [Mg(II)]
- [Metal] (metal concentration for optimal activity) (B. subtilis GCYH-IB [1]): 100 µM
- metal ion supports catalysis (B. subtilis GCYH-IB [1]): catalysis is supported
- relative activity (%) (B. subtilis GCYH-IB [1]): 43 ± 4%

SMILES: [Mn+2] [Mn(II)]
- [Metal] (metal concentration for optimal activity) (B. subtilis GCYH-IB [1]): 500 µM
- metal ion supports catalysis (B. subtilis GCYH-IB [1]): catalysis is supported
- relative activity (%) (B. subtilis GCYH-IB [1]): 100%

SMILES: [Ni+2] [Ni(II)]
- [Metal] (metal concentration for optimal activity) (B. subtilis GCYH-IB [1]): 100 µM
- metal ion supports catalysis (B. subtilis GCYH-IB [1]): catalysis is supported
- relative activity (%) (B. subtilis GCYH-IB [1]): 9.8 ± 1.3%

SMILES: [Zn+2] [Zn(II)]
- relative activity (%) (B. subtilis GCYH-IB [2]; 0.5 μM zinc): 84%
- relative activity (%) (B. subtilis GCYH-IB [2]; 1 μM zinc): 41%
- relative activity (%) (B. subtilis GCYH-IB [2]; 2 μM zinc): 34%
- relative activity (%) (B. subtilis GCYH-IB [2]; 4 μM zinc): 35%
- relative activity (%) (B. subtilis GCYH-IB [2]; 10 μM zinc): 35%
- relative activity (%) (B. subtilis GCYH-IB [2]; 20 μM zinc): 26%
- relative activity (%) (B. subtilis GCYH-IB [2]; 40 μM zinc): 23%
- relative activity (%) (N. gonorrhoeae GCYH-IB; 0.5 μM zinc): 93%
- relative activity (%) (N. gonorrhoeae GCYH-IB; 1 μM zinc): 68%
- relative activity (%) (N. gonorrhoeae GCYH-IB; 2 μM zinc): 57%
- relative activity (%) (N. gonorrhoeae GCYH-IB; 4 μM zinc): 47%
- relative activity (%) (N. gonorrhoeae GCYH-IB; 10 μM zinc): 53%
- relative activity (%) (N. gonorrhoeae GCYH-IB; 20 μM zinc): 45%
- relative activity (%) (N. gonorrhoeae GCYH-IB; 40 μM zinc): 45%
- optimum metal concentration required for catalysis, fold lower than for Mn^2+ (B. subtilis GCYH-IB [1]; Zn^2+ versus Mn^2+): roughly 10 fold
- [Metal] (metal concentration for optimal activity) (B. subtilis GCYH-IB [1]): 50 µM
- metal ion supports catalysis (B. subtilis GCYH-IB [1]): catalysis is supported
- relative activity (%) (B. subtilis GCYH-IB [1]): 14 ± 1%
